A short description of this data set: Viscosity of paste comprising BCG-CWS, co-axial bicylindrical viscometer. The following applies: unit not given. In kind it is physicochemical. The procedure: “Viscosity” as used herein means a value determined by dynamic viscoelasticity measurement, for example, values obtained using a co-axial bicylindrical viscometer. In the present invention, viscosity may be measured using a co-axial bicylindrical viscometer manufactured by Rheology Co., Ltd (Model MR-300, Soliquid meter) at 25° C. under nitrogen atmosphere. One poise represents 0.1 Pa·s (pascal.sec).
The viscosity of the paste was measured at 25° C. using a co-axial bicylindrical viscometer manufactured by Rheology Co., Ltd (Model MR-300, Soliquid meter). The viscosity was measured to be 0.545 poise.

`CC(C)CCCC(C)CCCC(C)CCCCC(C)CCCC(C)CCCC(C)C` (stereo not shown) [squalane] registered a viscosity of 0.236.

Source of the values: patent publication US20050250175A1, “Bacterial cell wall skeleton component preparaion” (priority 2002, published 2005).
